# From PubChem BioAssay (NCI)
#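 1) Cells in 96-well plates. 2) Compound, 48 h, 5 concentrations. 3) Linear interpolation between surrounding doses. 4) Unreached endpoint = highest concentration. GI50 marks 50% less growth. Definition used: TGI = concentration required for complete inhibition of growth.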
# Legend:
# Experiment in all cases: inhibition of tumour cell growth, NCI panel, 48 h
# NCI-H23 lung = tested on: NCI-H23 lung
# SK-MEL-5 melanoma = tested on: SK-MEL-5 melanoma
# MCF7 breast = tested on: MCF7 breast
# SW-620 colon = tested on: SW-620 colon
# HCC-2998 colon = tested on: HCC-2998 colon
# SNB-19 CNS = tested on: SNB-19 CNS
# NCI/ADR-RES ovarian = tested on: NCI/ADR-RES ovarian
# SNB-75 CNS = tested on: SNB-75 CNS
# HL-60(TB) leukemia = tested on: HL-60(TB) leukemia
# IGROV1 ovarian = tested on: IGROV1 ovarian
SMILES,GI50 (NCI-H23 lung) [µM],TGI (NCI-H23 lung) [µM],GI50 (SK-MEL-5 melanoma) [µM],TGI (SK-MEL-5 melanoma) [µM],GI50 (MCF7 breast) [µM],TGI (MCF7 breast) [µM],GI50 (SW-620 colon) [µM],TGI (SW-620 colon) [µM],GI50 (HCC-2998 colon) [µM],TGI (HCC-2998 colon) [µM],GI50 (SNB-19 CNS) [µM],TGI (SNB-19 CNS) [µM],GI50 (NCI/ADR-RES ovarian) [µM],TGI (NCI/ADR-RES ovarian) [µM],GI50 (SNB-75 CNS) [µM],TGI (SNB-75 CNS) [µM],GI50 (HL-60(TB) leukemia) [µM],TGI (HL-60(TB) leukemia) [µM],GI50 (IGROV1 ovarian) [µM],TGI (IGROV1 ovarian) [µM]
CN1CCN(Cc2ccc(C(=O)Nc3cncc(C#Cc4cnc(N)c5ccccc45)c3)cc2C(F)(F)F)CC1,1.85,4.41,1.73,3.12,1.67,3.39,1.78,3.89,2.19,4.74,2.49,5.69,1.93,4.22,3.42,12.3,1.12,2.99,1.87,4.43
CC(C)(C)c1cc(O)c(O)c(C(C)(C)C)c1,3.64,14.2,4.68,15.8,3.45,12.8,1.8,3.23,4.44,16.6,7.3,20.3,3.54,17.9,4.86,19,2.69,6.8,2.56,5.27
COc1cc2c3c(cccc3c1)C(=O)N(CCN1CCCC1)C2=O,2.49,8.21,1.56,3.06,1.71,20.4,2.04,15.7,2.63,7.19,2.83,58.6,2.25,8.04,1.63,3.65,3.65,61,2.66,6.78
COc1ccc(-c2nn(-c3cccc(Cl)c3)cc2C2CC(c3ccccc3)=NN2C(C)=O)cc1 (stereo unspecified),10.1,> 100,30.3,> 100,> 100,> 100,> 100,> 100,> 100,> 100,17,> 100,6.96,> 100,1.76,5.99,> 100,> 100,13.7,> 100
CSc1nc(SC)c2c(CN=[N+]=[N-])c(Br)n(Cc3ccccc3)c2n1,,> 100,,> 100,,> 100,,> 100,,> 100,,> 100,,> 100,,> 100,,> 100,,> 100
CCN1CCN(c2nc(NCCCNc3ccnc4cc(Cl)ccc34)c3ccccc3n2)CC1,4.29,16.9,1.74,3.11,1.93,11.1,2.36,7.63,1.87,6.09,2.96,11.5,15.2,32.3,1.78,6.88,2.18,4.25,2.36,10.9
COc1cccc(/C=C/C(=O)c2cc3c(N)c(C(=O)Nc4ccccc4C)sc3nc2C)c1,1.76,8.93,1.44,4.56,1.29,6.1,1.01,2.32,0.955,1.87,1.07,2.68,1.51,> 50,1.05,3.15,1.1,2.63,1.03,2.44
O=C(CSc1nc2ccc([N+](=O)[O-])cc2[nH]1)Nc1ccc(F)c(Cl)c1,2.05,8.79,1.22,3.03,2.03,9.4,3.26,15.7,2.95,11.8,2.83,13.1,2.31,8.23,1.84,7.5,2.21,6.26,2.65,14.6
CCOc1ccc(S(=O)(=O)/N=C2\C=C(SCC(=O)O)C(=O)c3ccccc32)cc1,2.81,14.2,1.72,3.1,1.64,3.68,3.31,11.1,14.8,28.2,3.42,12.1,3.26,13.5,2.5,4.96,2.35,6.99,2.14,4.34
COc1c(C2CC(=O)Nc3c2cnn3Cc2ccco2)cc2c(c1OC)OCO2 (stereo unspecified),0.674,> 100,0.395,8.38,0.367,> 100,0.385,> 100,1.1,> 28.4,> 100,> 100,1.08,> 100,0.295,> 100,0.301,,1.73,> 100
C=CC(=O)N[C@H]1C=C(C)c2c(-c3cnc4ccccc4c3)c3c(N)ncnc3n2C1,19.6,54.5,12.5,25.2,21.1,> 100,23.8,> 95.5,22.4,45,32.4,> 100,21.3,> 87.9,3.56,30.5,29.8,> 80.4,0.568,12.2
O=C(Nc1nc2ccccc2s1)OCC(F)(F)F,> 100,> 100,> 100,> 100,> 100,> 100,> 100,> 100,> 100,> 100,> 100,> 100,> 100,> 100,> 100,> 100,> 100,> 100,> 100,> 100
O=C(NNc1nc2c(F)cccc2n2cccc12)c1cnccn1,0.905,> 69.8,0.864,4.56,0.412,29.6,0.435,38.5,0.867,28.6,0.545,> 100,0.327,23.3,1.98,41.6,0.409,4.74,0.328,29.1
Brc1cccc(-c2cc(-c3ccc4c(c3)OCCO4)[nH]n2)c1,3.46,53.6,1.17,30.3,1.06,41.2,0.785,35.3,3.92,33.4,3.05,50.5,0.766,29.8,0.531,6.58,0.891,17.5,1.31,30.2
COC1(C(=O)N2Cc3nc(Cl)nc(N[C@H](C)c4cc(N)cc(C(F)(F)F)c4)c3C2)CCOCC1,19.7,72.4,14.8,28.1,17.5,49.3,24.8,> 86.3,20.8,59.2,14.5,72,24.6,> 94.5,17.4,62.9,22.6,66.4,13.5,43.8
CC(C)(C)OC(=O)NC(Cc1ccccc1)C(=O)OCN1C(=O)C2C3C=CC(C2C1=O)C1C2C(=O)N(COC(=O)C(Cc4ccccc4)NC(=O)OC(C)(C)C)C(=O)C2C31 (stereo unspecified),,> 100,,> 74.8,,> 100,,> 100,,> 100,,> 82.7,,> 100,,58.9,,> 57.5,,97.4
C#Cc1cnc(=O)n(C2CC(O)C(CO)O2)c1 (stereo unspecified),> 100,> 100,> 100,> 100,> 100,> 100,> 100,> 100,> 100,> 100,,> 23,> 100,> 100,> 100,> 100,> 100,> 100,> 100,> 100
N#CC(=C1SCS1)[N+](=O)[O-],7.96,34.8,3.25,13.8,1.31,17.8,0.454,6.47,4.26,16.6,9.36,83.5,3.05,20,2.44,8.76,0.618,6.36,3.55,71.1
O=C(CCN1CCN(c2cnc3ccccc3n2)CC1)c1csc2ccccc12,> 100,> 100,60.3,> 100,18.1,48.6,20.9,45.4,> 100,> 100,> 100,> 100,> 100,> 100,24.2,91.6,35.2,> 100,,
